Laboratory results published in the supplement of paper PMC10307832.

Tests used:
Assay in all cases: relative viability (nuclei count vs DMSO), 5 days (fraction); higher = more cells survive
COR-L23 = test system: COR-L23
In short: (§1)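 Lung cancer cell lines were pin-tool dosed in 1536-well plates on the day after seeding, with either a lone drug or a fixed anchor-drug dose plus five library-drug doses (not always all listed) in √10 steps. Nuclei were counted on 4× images after 5 days. Relative viability is the ratio of treated-well to vehicle-well nuclei counts, with each value a median of duplicate plates.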

201T = test system: 201T
In short: as §1

NCI-H23 = test system: NCI-H23
In short: as §1

HARA = test system: HARA
In short: as §1

NCI-H1792 = test system: NCI-H1792
In short: as §1

HCC-15 = test system: HCC-15
In short: as §1

NCI-H596 = test system: NCI-H596
In short: as §1

NCI-H650 = test system: NCI-H650
In short: as §1

HCC-44 = test system: HCC-44
In short: as §1

SK-MES-1 = test system: SK-MES-1
In short: as §1

Nc1ccn([C@@H]2O[C@H](CO)[C@@H](O)[C@@H]2O)c(=O)n1 [Cytarabine] + C[C@]1(O)C[C@@H](c2nc(-c3ccc4ccc(-c5ccccc5)nc4c3)c3c(N)nccn32)C1 [Linsitinib] (partner 1 µM)
relative viability (COR-L23; first compound 0.005 µM): 0.787
relative viability (COR-L23; first compound 0.01581 µM): 0.806
relative viability (COR-L23; first compound 0.05 µM): 0.552
relative viability (COR-L23; first compound 0.1581 µM): 0.159
relative viability (COR-L23; first compound 0.5 µM): 0.122
relative viability (201T; first compound 0.005 µM): 1.1
relative viability (201T; first compound 0.01581 µM): 1.02
relative viability (201T; first compound 0.05 µM): 1.03
relative viability (201T; first compound 0.1581 µM): 0.9
relative viability (201T; first compound 0.5 µM): 0.886
relative viability (NCI-H23; first compound 0.005 µM): 0.544
relative viability (NCI-H23; first compound 0.01581 µM): 0.417
relative viability (NCI-H23; first compound 0.05 µM): 0.294
relative viability (NCI-H23; first compound 0.1581 µM): 0.157
relative viability (NCI-H23; first compound 0.5 µM): 0.14
relative viability (HARA; first compound 0.005 µM): 0.851
relative viability (HARA; first compound 0.01581 µM): 0.608
relative viability (HARA; first compound 0.05 µM): 0.396
relative viability (HARA; first compound 0.1581 µM): 0.174
relative viability (HARA; first compound 0.5 µM): 0.0936
relative viability (NCI-H1792; first compound 0.005 µM): 0.46
relative viability (NCI-H1792; first compound 0.01581 µM): 0.492
relative viability (NCI-H1792; first compound 0.05 µM): 0.34
relative viability (NCI-H1792; first compound 0.1581 µM): 0.348
relative viability (NCI-H1792; first compound 0.5 µM): 0.283
relative viability (HCC-15; first compound 0.005 µM): 0.902
relative viability (HCC-15; first compound 0.01581 µM): 0.912
relative viability (HCC-15; first compound 0.05 µM): 0.903
relative viability (HCC-15; first compound 0.1581 µM): 0.72
relative viability (HCC-15; first compound 0.5 µM): 0.585
relative viability (NCI-H596; first compound 0.005 µM): 1.03
relative viability (NCI-H596; first compound 0.01581 µM): 0.857
relative viability (NCI-H596; first compound 0.05 µM): 0.763
relative viability (NCI-H596; first compound 0.1581 µM): 0.658
relative viability (NCI-H596; first compound 0.5 µM): 0.628
relative viability (NCI-H650; first compound 0.005 µM): 0.763
relative viability (NCI-H650; first compound 0.01581 µM): 0.475
relative viability (NCI-H650; first compound 0.05 µM): 0.379
relative viability (NCI-H650; first compound 0.1581 µM): 0.209
relative viability (NCI-H650; first compound 0.5 µM): 0.234
relative viability (HCC-44; first compound 0.005 µM): 0.675
relative viability (HCC-44; first compound 0.01581 µM): 0.664
relative viability (HCC-44; first compound 0.05 µM): 0.384
relative viability (HCC-44; first compound 0.1581 µM): 0.48
relative viability (HCC-44; first compound 0.5 µM): 0.397
relative viability (SK-MES-1; first compound 0.005 µM): 0.905
relative viability (SK-MES-1; first compound 0.01581 µM): 0.82
